Assay results from patent US8546377B2 (AbbVie Inc., priority 2009, dated 2013).
Read-outs that look alike come from different tables or passages of the source.

Experiments:
[1] = molecular target: T1, 5HT2C receptors (Homo sapiens, UniProt P28335); assay: Human 5-HT2C functional assay in CHO-K1 cells (calcium flux, FLIPR); format: cell-based; parameters: expressed in transfected cells; host or cells: CHO-K1 cells
T1 sequence (P28335 33-458): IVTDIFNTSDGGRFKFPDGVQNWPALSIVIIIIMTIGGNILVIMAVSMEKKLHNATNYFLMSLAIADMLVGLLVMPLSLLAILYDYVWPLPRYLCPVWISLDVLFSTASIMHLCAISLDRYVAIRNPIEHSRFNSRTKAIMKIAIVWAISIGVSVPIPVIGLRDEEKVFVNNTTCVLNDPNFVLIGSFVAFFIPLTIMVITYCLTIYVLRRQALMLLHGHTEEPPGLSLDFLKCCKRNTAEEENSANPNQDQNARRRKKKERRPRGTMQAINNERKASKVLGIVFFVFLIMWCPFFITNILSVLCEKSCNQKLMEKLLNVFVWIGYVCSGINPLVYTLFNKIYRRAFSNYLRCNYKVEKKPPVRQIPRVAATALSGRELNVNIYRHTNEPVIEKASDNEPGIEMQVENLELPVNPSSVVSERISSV
Outline: (§1)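 Frozen CHO-K1 cells over-expressing receptor, serum-starved overnight, loaded with Ca4 dye plus 2.5 mM probenecid for 60 min at room temperature. FLIPR fluorescence (ex 480/em 530 nm, 25° C) recorded 3 min after compound addition; 6-point 1:10 series from 10 μM, 0.2% DMSO. Response normalized to serotonin, 4-parameter fit gives EC50; Emax as % of serotonin.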

[2] = molecular target: T2, 5HT2B receptors (Homo sapiens, UniProt P41595); assay: Human 5-HT2B functional assay in CHO-K1 cells (calcium flux, FLIPR); format: cell-based
T2 construct: expressed in transfected cells; host or cells: CHO-K1 cells
Outline: as §1

[3] = CHO-K1, read-out: Emax (%), 5-HT2c Agonist Activity, CHO-K1 cells, percentage relative to the effect of serotonin
[4] = CHO-K1, read-out: Emax (%), 5-HT2B Agonist Activity
[5] = CHO-K1 cells over-expressing 5HT2C, calcium flux, read-out: EC50 (μM), 5-HT2c Agonist Activity
[6] = CHO-K1 cells, percentage relative to the effect of serotonin, read-out: Emax (%), 5-HT2c Agonist Activity
[7] = CHO-K1 cells over-expressing 5HT2B, calcium flux, read-out: EC50 (μM), 5-HT2B Agonist Activity
[8] = CHO-K1 cells, percentage relative to the effect of serotonin, read-out: Emax (%), 5-HT2B Agonist Activity

T2 sequence (P41595 whole entry): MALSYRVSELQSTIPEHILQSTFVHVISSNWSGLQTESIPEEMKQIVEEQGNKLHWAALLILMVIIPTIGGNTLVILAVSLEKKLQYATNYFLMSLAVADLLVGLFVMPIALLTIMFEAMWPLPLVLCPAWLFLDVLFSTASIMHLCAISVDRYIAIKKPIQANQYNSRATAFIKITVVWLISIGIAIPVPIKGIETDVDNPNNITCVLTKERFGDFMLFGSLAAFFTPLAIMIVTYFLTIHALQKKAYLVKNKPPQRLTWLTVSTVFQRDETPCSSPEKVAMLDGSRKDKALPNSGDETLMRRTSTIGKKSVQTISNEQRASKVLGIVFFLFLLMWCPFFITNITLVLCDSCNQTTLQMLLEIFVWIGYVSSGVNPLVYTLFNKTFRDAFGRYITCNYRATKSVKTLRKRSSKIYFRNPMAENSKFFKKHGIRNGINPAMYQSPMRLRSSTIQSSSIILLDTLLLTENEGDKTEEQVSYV

EC50 [1, 5]	Emax [1, 6]	EC50 [2, 7]	Emax [2, 8]	SMILES	EC50 [1]	Emax [1, 3]	EC50 [2]	Emax [2, 4]	Emax (%), 5-HT2c Agonist Activity ([1]; CHO-K1 cells, percentage relative to the effect of serotonin)
0.02 µM	> 120%	2 µM	15%	Fc1ccccc1-c1ccc2c(c1)N1CCNC[C@@H]1CCO2 [Example 203, (4aS)-10-(2-fluorophenyl)-2,3,4,4a,5,6-hexahydro-1H-pyrazino[2,1-d][1,5]-benzoxazepine]	–	–	–	–	–
0.02 µM	> 120%	> 10 µM	–	O=C1C[C@H]2CNCCN2c2cc(OCC3CC3)ccc2N1 [Example 170, (4aS)-10-(cyclopropylmethoxy)-1,2,3,4,4a,5-hexahydropyrazino[1,2-a][1,5]benzodiazepin-6(7H)-one]	–	–	–	–	–
0.03 µM	110%	1 µM	15%	O=C1CC2CNCCN2c2cc(-c3ccccc3-c3ccccc3)ccc2N1 (centres unmarked) [Example 64, 10-(biphenyl-2-yl)-1,2,3,4,4a,5-hexahydropyrazino[1,2-a][1,5]benzodiazepin-6(7H)-one]	–	–	–	–	–
0.05 µM	> 120%	5 µM	10%	Fc1ccc(-c2ccc3c(c2)N2CCNC[C@@H]2CCO3)cc1 [Example 205, (4aS)-10-(4-fluorophenyl)-2,3,4,4a,5,6-hexahydro-1H-pyrazino[2,1-d][1,5]benzoxazepine]	–	–	–	–	–
0.0295 µM	> 120%	> 10 µM	–	O=C1CC2CNCCN2c2cc(OCc3ccccc3C(F)(F)F)ccc2N1 (centres unmarked) [Example 157, 10-{[2-(trifluoromethyl)benzyl]oxy}-1,2,3,4,4a,5-hexahydropyrazino[1,2-a][1,5]benzodiazepin-6(7H)-one]	–	–	–	–	–
0.3 µM	90%	> 10 µM	–	CS(=O)(=O)c1cccc(-c2ccc3c(c2)OCC[C@H]2CNCCN32)c1 [Example 238, (4aS)-9-[3-(methylsulfonyl)phenyl]-2,3,4,4a,5,6-hexahydro-1H-pyrazino[2,1-d][1,5]benzoxazepine]	–	–	–	–	–
0.07 µM	> 120%	2 µM	20%	O=C1CC2CNCCN2c2cc(-c3ccsc3)ccc2N1 (centres unmarked) [Example 72, 10-(3-thienyl)-1,2,3,4,4a,5-hexahydropyrazino[1,2-a][1,5]benzodiazepin-6(7H)-one]	–	–	–	–	–
0.2 µM	100%	> 10 µM	–	CCN1C(=O)CC2CNCCN2c2ccc(Cl)cc21 (centres unmarked) [Example 77, 9-chloro-7-ethyl-1,2,3,4,4a,5-hexahydropyrazino[1,2-a][1,5]-benzodiazepin-6(7H)-one]	–	–	–	–	–
0.9 µM	100%	> 10 µM	–	O=C1C[C@H]2CNCCN2c2cc(OCCc3ccccn3)ccc2N1 [Example 171, (4aS)-10-[2-(pyridin-2-yl)ethoxy]-1,2,3,4,4a,5-hexahydropyrazino[1,2-a][1,5]benzodiazepin-6(7H)-one]	–	–	–	–	–
0.008 µM	> 120%	0.05 µM	30%	O=C1C[C@H]2CNCCN2c2cc(-c3ccccc3F)ccc2N1 [Example 116, (4aS)-10-(2-fluorophenyl)-1,2,3,4,4a,5-hexahydropyrazino[1,2-a][1,5]benzodiazepin-6(7H)-one]	–	–	–	–	–
0.0008 µM	100%	0.4 µM	50%	CC(O)c1cccc(-c2ccc3c(c2)N2CCNC[C@@H]2CCO3)c1 (stereo partly drawn) [Example 222, 1-{3-[(4aS)-2,3,4,4a,5,6-hexahydro-1H-pyrazino[2,1-d][1,5]benzoxazepin-10-yl]phenyl}ethanol]	–	–	–	–	–
0.1 µM	> 120%	> 10 µM	–	O=C1CC2CNCCN2c2cc(-c3cccc(F)c3)ccc2N1 (centres unmarked) [Example 61, 10-(3-fluorophenyl)-1,2,3,4,4a,5-hexahydropyrazino[1,2-a][1,5]benzodiazepin-6(7H)-one]	–	–	–	–	–
0.07 µM	55%	> 10 µM	–	FC(F)(F)c1ccc2c(c1)OCC[C@H]1CNCCN21 [Example 216, (4aS)-9-(trifluoromethyl)-2,3,4,4a,5,6-hexahydro-1H-pyrazino[2,1-d][1,5]benzoxazepine]	–	–	–	–	–

The remaining lines, values behind:

SMILES	EC50 [1, 5]	Emax [1, 6]	EC50 [2, 7]	Emax [2, 8]	EC50 [1]	Emax [1, 3]	EC50 [2]	Emax [2, 4]	Emax (%), 5-HT2c Agonist Activity ([1]; CHO-K1 cells, percentage relative to the effect of serotonin)
O=C1CC2CNCCN2c2cc(-c3ccccn3)ccc2N1 (centres unmarked) [Example 71, 10-(pyridin-2-yl)-1,2,3,4,4a,5-hexahydropyrazino[1,2-a][1,5]benzodiazepin-6(7H)-one]	–	–	–	–	0.002 µM	> 120%	0.02 µM	100%	–
Fc1ccc2c(c1)OCC[C@H]1CNCCN21 [Example 136, (4aS)-9-fluoro-2,3,4,4a,5,6-hexahydro-1H-pyrazino[2,1-d][1,5]benzoxazepine]	–	–	–	–	0.002 µM	> 120%	0.1 µM	20%	–
CCc1cccc2c1OCC[C@H]1CNCCN21 [Example 237, (4aS)-8-ethyl-2,3,4,4a,5,6-hexahydro-1H-pyrazino[2,1-d][1,5]benzoxazepine]	–	–	–	–	0.005 µM	90%	> 10 µM	–	–
c1ccc2c(c1)CCCC1CNCCN21 (centres unmarked) [Example 182, 1,2,3,4,4a,5,6,7-octahydropyrazino[1,2-a][1]benzazepine]	–	–	–	–	0.007 µM	> 120%	0.1 µM	40%	–
C[C@@H]1CN2c3ccccc3OCC[C@H]2CN1 [Example 266, (2R,4aS)-2-methyl-2,3,4,4a,5,6-hexahydro-1H-pyrazino[2,1-d][1,5]benzoxazepine]	–	–	–	–	0.1 µM	70%	0.5 µM	15%	–
CN1CCN2c3cccc(F)c3NC(=O)C[C@H]2C1 [Example 88, (4aS)-8-fluoro-3-methyl-1,2,3,4,4a,5-hexahydropyrazino[1,2-a][1,5]benzodiazepin-6(7H)-one]	–	–	–	–	0.03 µM	> 120%	> 10 µM	–	–
O=C1CC2CNCCN2c2ccc(Cl)cc2N1 (centres unmarked) [Example 51, 9-chloro-1,2,3,4,4a,5-hexahydropyrazino[1,2-a][1,5]benzodiazepin-6(7H)-one]	–	–	–	–	0.07 µM	90%	> 10 µM	–	–
C[C@H]1C[C@H]2CNCCN2c2ccccc2O1 (single isomer, unassigned) [Example 253]	–	–	–	–	0.09 µM	100%	> 10 µM	–	–
COc1ccc2c(c1)OCC[C@H]1CNCCN21 [Example 243, (4aS)-9-methoxy-2,3,4,4a,5,6-hexahydro-1H-pyrazino[2,1-d][1,5]benzoxazepine]	–	–	–	–	0.05 µM	–	> 10 µM	–	55%
CN1CCN2c3ccccc3OCC[C@H]2C1 [Example 132, (4aS)-3-methyl-2,3,4,4a,5,6-hexahydro-1H-pyrazino[2,1-d][1,5]benzoxazepine]	–	–	–	–	0.007 µM	> 120%	> 10 µM	–	–
O=C1CC2CNCCN2c2cc(-c3cccc(-c4ccccc4)c3)ccc2N1 (centres unmarked) [Example 59, 10-(biphenyl-3-yl)-1,2,3,4,4a,5-hexahydropyrazino[1,2-a][1,5]benzodiazepin-6(7H)-one]	0.04 µM	> 120%	> 10 µM	–	–	–	–	–	–
O=C1CC2CNCCN2c2cccc(Cl)c2N1 (centres unmarked) [Example 110, 8-chloro-1,2,3,4,4a,5-hexahydropyrazino[1,2-a][1,5]benzodiazepin-6(7H)-one]	–	–	–	–	0.005 µM	> 120%	> 10 µM	–	–
[2H]c1ccc2c(c1)OCC[C@H]1CNCCN21 [Example 263, (4aS)-(9-^2H)-2,3,4,4a,5,6-hexahydro-1H-pyrazino[2,1-d][1,5]benzoxazepine]	–	–	–	–	0.003 µM	95%	0.09 µM	15%	–
